# Test results taken from PMC6992361 (Molecular cancer therapeutics, 2019).
# Legend:
# [1] = test system: monolayer of endothelial cells; experiment: Transendothelial electrical impedance assay; assay type: cell-based; conditions: S1P at 10 nM
# [2] = test system: 786-O RCC tumor xenograft; assay type: in vivo; conditions: 786-O xenograft; sunitinib 50 mg/kg, Ex82 30mg/kg daily by gavage
# [3] = test system: 786-O RCC tumor xenograft; experiment: Multiplexed immunohistochemistry analysis of tumors; assay type: in vivo, mouse; conditions: 786-O xenograft tumors
# [4] = test system: 786-O RCC tumor xenograft; experiment: Arterial spin labeled MRI of tumor blood flow; assay type: in vivo, mouse; conditions: day 26 +/- 4 days
Compound,electrical impedance of endothelial monolayer [1],tumor growth [2],S1P1 expression in tumors [3],percent area of TUNEL [3] [%],percent area of tumor vessels (CD34) [3] [%],tumor blood flow (ASL MRI) [4]
"CCCCCCCCCCCCC/C=C/[C@@H](O)[C@@H](N)COP(=O)(O)O [S1P, sphingosine-1-phosphate]",strongly increases electrical impedance,–,–,–,–,–
CCN(CC)CCNC(=O)c1c(C)[nH]c(/C=C2\C(=O)Nc3ccc(F)cc32)c1C [sunitinib],–,slowed tumor growth,significantly reduced,10.9,7.2,lower tumor blood flow than vehicle
